Measurements as given in patent publication US20100113337A1, “METHOD FOR REDUCING INCIDENCE OR RATE OF DEVELOPMENT OF SKIN CANCERS AND RELATED CONDITIONS” (Clinuvel Pharmaceuticals Limited, priority 2006, published 2010).

How the values were obtained:
[1] = test system: Hairless albino Sh:HR-1 mice; test: UVB induced skin carcinogenesis in hairless mice (tumour multiplicity); type: in vivo, mouse; conditions: one minimal erythemal dose of UVB daily for 10 weeks; tumours counted at weeks 11, 13, 14, 15, 16 and 17; versus control group
Excerpt: Hairless mouse strains such as the HRA-Skh-1 mice are a standard mouse model used to study solar damage to human skin (Canfield et al., 1985—reference 1). Exposure of the hairless mouse to UV light mimics “sunburn” in humans. With continued irradiation treatment, this on-going damage is reflected in progressive thickening of the skin which histologically mimics hyperkeratinization and elastosis associated with photoaging and chronically sun-exposed skin in humans. Pre-malignant tumours begin to appear within several weeks of completion of the ultra violet light regimen. Over an ensuing time period there is a progressive development of pre-malignant and malignant tumours, the histology and behaviour of which closely mimic keratoses and pre-malignant and malignant skin cancers that develop in humans in response to sunlight.
Hairless albino Sh:HR-1 mice are divided into two groups each containing 20 animals. The first group receiving Nle^4-D-Phe^7-alpha-MSH, and the second group being a control group. Both groups receive one minimal erythemal dose of UVB light to stimulate the toxic effect of sunlight on the skin daily for 10 weeks. At weeks 11, 13, 14, 15, 16 and 17 the number of skin tumours on each animal is measured and calculated as tumour multiplicity, i.e. average number of tumours per mouse.

[2] = test system: human volunteers; conditions: cited from earlier work

In the case of “[Nle^4,D-Phe^7]-alpha-MSH [Nle^4-D-Phe^7-α-MSH]”, the “protection against UVB induced carcinogenesis (tumour multiplicity, average number of tumours per mouse)” value [1] is given as “Protection against UVB induced carcinogenesis is observed” and the “induction of melanin synthesis” value [2] is given as “can induce melanin synthesis”.
